# What was measured:
# IRS-2 = assay: Tyrosine phosphorylation of IRS-2 in Fao hepatoma cells, TNF-α induced 'insulin resistance'; format: cell-based; details: for Reversal of TNF-α induced 'insulin resistance': doses known to have potent biological effects, cells not restated; for Tyrosine-phosphorylation of IRS-2: Fao hepatoma cells
# [1] = tested on: isolated tissues and cultured cells; details: cited from earlier work
# IKKβ [2] = details: without activating upstream elements in the TNF-α signaling cascade; cited from earlier work
# Zucker fa/+ rats = assay: Effects of high-dose aspirin in Zucker fa/+ rats (oral GTT); format: in vivo, rat; details: 120 mg/kg/day
# Description: (§1) Ob/ob mice are leptin deficient.
# ob/+ mice = assay: Effects of high-dose aspirin in ob/+ mice (GTT); format: in vivo, mouse; details: aspirin treatment, 120 mg/kg/day; intraperitoneal GTT
# Description: as §1
# ob/ob mice = details: 120 mg/kg/day; for Food intake, blood chemistry, or body weight: ob/ob mice
# Experimental: FIGS. 1A-H: In vivo effects of aspirin in Zucker fatty rats and ob/ob mice. (panels A-F) Twelve-week-old male Zucker rats (Harlan) and (panels G,H) eight-week-old ob/ob and ob/+ mice (Jackson Labs) were given free access to food and water. […] For glucose tolerance tests (GTT), glucose (2.0 g/kg) was administered by oral gavage (rats) or intraperitoneal injection (mice) after an overnight fast. (panels A,C) Blood glucose and (panels B,D) serum insulin levels were determined during oral glucose tolerance tests in (panels A,B) six Zucker fa/fa rats and (panels C,D) six fa/+ rats. For insulin tolerance tests (ITT) in (panel E) six Zucker fa/fa rats, insulin (2.0 U/kg) was injected intraperitoneally after an overnight fast. (panel F) Cholesterol (Chol), triglyceride (TG), long chain free fatty acid (FFA), and liver alanine aminotransferase (ALT) levels were measured in sera from fasting Zucker fa/fa rats. Glucose tolerance tests were conducted with (panel G) ten ob/ob mice and (panel H) ten ob/+ mice. Data are mean±SEM values; some SEM values are within the area of the symbols.
# A determination of the effects of high-dose salicylates on obese rodents with severe insulin resistance was performed as follows. Twelve-week-old male Zucker fa/fa rats and eight-week-old male ob/ob mice were treated for 3-4 weeks with 120 mg/kg/day of aspirin or salicylate, administered by continuous subcutaneous infusion; this dose is roughly equivalent to 5-10 g/day in humans.
# IRS-1 [3] = assay: Electrophoretic mobility of IRS-1 from livers of treated animals; format: in vivo; details: animal livers; suggests decrease in Ser/Thr phosphorylation
# Description: In cultured cells, IRS proteins are especially prone to phosphorylation on serine and threonine residues, which opposes the effect of tyrosine phosphorylation by inhibiting signaling.
# IKKβ [4] = biological target: T1, IKKβ (Homo sapiens, UniProt O14920); details: Yin et al (1998); cited from earlier work
# T1 sequence (O14920 1-756): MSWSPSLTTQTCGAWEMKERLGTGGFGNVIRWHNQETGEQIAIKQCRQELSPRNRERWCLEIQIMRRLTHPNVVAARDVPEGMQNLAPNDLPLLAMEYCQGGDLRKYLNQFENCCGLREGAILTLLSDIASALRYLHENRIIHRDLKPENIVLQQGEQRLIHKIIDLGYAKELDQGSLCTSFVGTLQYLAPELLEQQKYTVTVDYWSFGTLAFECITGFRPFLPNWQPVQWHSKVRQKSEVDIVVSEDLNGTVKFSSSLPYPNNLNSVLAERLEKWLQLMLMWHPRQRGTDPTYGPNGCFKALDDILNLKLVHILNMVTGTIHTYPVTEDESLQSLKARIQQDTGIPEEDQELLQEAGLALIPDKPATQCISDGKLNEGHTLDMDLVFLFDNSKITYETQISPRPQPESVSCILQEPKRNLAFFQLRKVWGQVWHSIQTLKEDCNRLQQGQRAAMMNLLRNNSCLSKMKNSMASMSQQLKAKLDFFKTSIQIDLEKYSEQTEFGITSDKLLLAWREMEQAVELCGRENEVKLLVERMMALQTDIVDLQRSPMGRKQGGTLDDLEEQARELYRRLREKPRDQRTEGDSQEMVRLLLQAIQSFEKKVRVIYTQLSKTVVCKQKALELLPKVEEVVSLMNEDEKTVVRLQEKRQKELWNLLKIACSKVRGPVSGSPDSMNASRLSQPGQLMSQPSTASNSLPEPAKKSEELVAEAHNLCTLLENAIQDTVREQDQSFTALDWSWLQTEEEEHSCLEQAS
# IR, IRS-2 and AKT = assay: Insulin-stimulated activation of IR, IRS-2 and AKT in HEK293 cells expressing IKKβ, IKKα or NIK; format: cell-based; details: treatment with aspirin
# Description: To directly test the potential role of IKK, The IKKα and IKKβ catalytic subunits and NIK, an upstream activator, were expressed in HEK293 cells. Insulin stimulated the activation of IR, IRS-2 and AKT in these cells. Activation was attenuated by expression of IKKβ, IKKα or NIK. Attenuated activation was reversed by treatment with aspirin.
# Sprague-Dawley rats = assay: Insulin sensitivity in Sprague-Dawley rats on aspirin treatment; format: in vivo, rat; details: rats not insulin resistant, obese, or diabetic
# IRS-1 [5] = assay: Insulin-stimulated tyrosine phosphorylation of IRS-1 in 3T3-L1 adipocytes made 'insulin resistant'; format: cell-based
# Experimental: (§2) Culture cells were used as follows to investigate the mechanisms relating to salicylate treatment to the in vivo reversal of insulin resistance. TNF-α treatment of 3T3-L1 adipocytes induced ‘insulin resistance’, as judged by significant decreases in insulin-stimulated tyrosine phosphorylation of IR β-subunit (42±11%) and IRS-1 (37±9%). TNF-α mediated ‘insulin resistance’ was reversed by pretreatment with high-dose (5 mM) aspirin. IR and IRS-1 phosphorylation levels were restored to 126±24% and 136±35%, respectively, compared to untreated controls; IR and IRS-1 protein levels were unchanged in TNF-α and aspirin-treated cells. TNF-α activates a cascade of adapters and kinases, including TRADD, RIP, TRAF2, and TAB1, which act upstream of JNK, p38 MAPK, and the IKK complex. Okadaic acid and calyculin A, two phosphatase inhibitors, also activate IKKβ (DiDonato et al. (1997) Nature 388:548; Harhaj & Sun (1997) J Biol Chem 272:5409), but without activating upstream elements in the TNF-α signaling cascade. Okadaic acid and calyculin A also induce ‘insulin resistance’ in isolated tissues and cultured cells (Robinson et al (1993) Am J Physiol 265:E36; Paz et al (1997) J. Biol Chem 272:29911). Therefore, it was determined whether aspirin would reverse ‘insulin resistance’ caused by these inhibitors. Marked reductions in insulin-stimulated IR (29±12%) and IRS-1 (16±2%) tyrosine-phosphorylation were prevented by incubating the cells with high-dose aspirin (109±15% and 93±25%, respectively).
# (§3) Hyperglycemia- and hyperinsulinemia-induced insulin resistance in diabetic subjects can be mimicked in cell culture by incubation with high concentrations of glucose and insulin. Potential mechanisms include glucose-induced activation of PKC, which can activate IKK. […] Concurrent treatment with aspirin restored IR (107±23%) and IRS-1 (90±23%) tyrosine-phosphorylation to levels seen in cells incubated at 5.5 mM glucose. […] Protein levels were restored by concurrent treatment with aspirin. Serine phosphorylation of IκB leads to ubiquitination and proteosome-mediated degradation. IRS proteins may be degraded by a similar route and in both cases, downregulation was inhibited by aspirin.
# AKT kinase = assay: Insulin-stimulated AKT phosphorylation in tissues from treated Zucker rats; format: in vivo, rat; details: liver and muscle of treated Zucker rats vs untreated
# Experimental: (§4) Tissues were isolated from treated animals and insulin signaling proteins were analyzed. […] A cascade consisting of insulin receptor (IR), insulin-receptor substrate (IRS) proteins, PI 3-kinase and 3-phosphoinositide-dependent protein kinase-1 (PDK1), is required for maintenance of metabolic homeostasis.
# IR β-subunit = assay: Insulin-stimulated tyrosine phosphorylation of IR in 3T3-L1 adipocytes made 'insulin resistant'; format: cell-based; details: for IR and IRS-1 protein levels: TNF-α and aspirin-treated cells
# Experimental: as §2, §3
# Zucker fa/fa rats = assay: Effects of high-dose salicylates in Zucker fa/fa rats (GTT, ITT, serum lipids, ALT); details: for Food intake, blood chemistry, or body weight: Zucker fa/fa rats
# Description: as §1
# Insulin receptor (IR) = assay: Insulin receptor tyrosine autophosphorylation in tissues from treated Zucker rats; format: in vivo, rat; details: liver and muscle of treated Zucker rats vs untreated
# Experimental: as §4
# cyclooxygenases = details: Furst (1994); cited from earlier work
# [6] = 120 mg/kg/day continuous subcutaneous infusion
# Description: as §1
# AKT = AKT activation in 293 cells; format: cell-based; details: TNF-α treatment
# Description: (§5) However, TNF-α is a potential mediator of acquired insulin resistance (Lang et al. (1992) Endocrinology 130:43; Feinstein et al. (1993) J Biol Chem 268:26055; Hotamisligil et al. (1993) Science 259:87; Hotamisligil et al. (1994) J Clin Invest 94:1543). TNF-α activates the IKK complex. TNF-α treatment of untransfected 293 cells reduced insulin-stimulated IR activation to 29±2% of untreated controls. Expression of kinase deficient, dominant inhibitory IKKα(K44A) or IKKβ(K44A) reversed TNF-α-inhibited IR activation. In fact, dominant-inhibitory IKKβ caused a 60% increase in insulin-stimulated IR tyrosine-phosphorylation over controls, whether or not cells had been treated with TNF-α. […] There is in vivo support for this, as well.
# IR = assay: Insulin-stimulated IR activation in untransfected 293 cells; format: cell-based; details: TNF-α treatment
# Description: as §5
# [7] = 3T3-L1 adipocytes overnight in 25 mM glucose and 10 nM insulin, concurrent aspirin, relative to cells at 5.5 mM glucose
# [8] = 3T3-L1 adipocytes, TNF-α, pretreatment with 5 mM aspirin
# [9] = phosphatase inhibitor-induced 'insulin resistance', cells incubated with high-dose aspirin
# [10] = 3T3-L1 adipocytes, TNF-α treatment alone
compound,measurement,setting,value
CS(=O)(=O)Nc1ccc([N+](=O)[O-])cc1OC1CCCCC1 [NS-398],Reversal of TNF-α induced 'insulin resistance',IRS-2,no effect
C=C1[C@@H](O)[C@@H]2O[C@]3(CC[C@H](/C=C/[C@@H](C)[C@@H]4CC(C)=C[C@@]5(O[C@H](C[C@@](C)(O)C(=O)O)CC[C@H]5O)O4)O3)CC[C@H]2O[C@@H]1[C@@H](O)C[C@H](C)[C@H]1O[C@@]2(CCCCO2)CC[C@H]1C [Okadaic acid],'Insulin resistance' in isolated tissues and cultured cells,[1],induce
same,Effect on IKKβ,IKKβ [2],activate
CC(=O)Oc1ccccc1C(=O)O [aspirin],Insulin levels during glucose tolerance test,Zucker fa/+ rats; aspirin-treated group,Significantly lower
same,Glucose levels during glucose tolerance test,Zucker fa/+ rats; following aspirin treatment,marginally reduced
same,Glucose intolerance,ob/+ mice,normalized
same,Fasting blood glucose values and glucose tolerance,"ob/ob mice; 3-4 weeks, intraperitoneal GTT, compared to untreated controls, every time point",significantly improved
same,"Food intake, blood chemistry, or body weight",ob/ob mice,Neither aspirin nor salicylate affected
same,Electrophoretic mobility of IRS-1,IRS-1 [3],increased
same,"Inhibition of IKKβ, relative potency",IKKβ [4],equipotent inhibitors
same,"Activation of IR, IRS-2 and AKT attenuated by expression of IKKβ, IKKα or NIK","IR, IRS-2 and AKT",reversed
same,Insulin sensitivity,Sprague-Dawley rats,increased insulin sensitivity
same,Insulin-stimulated IRS-1 tyrosine-phosphorylation,IRS-1 [5]; [7],90±23%
same,IRS-1 phosphorylation level compared to untreated controls,IRS-1 [5]; [8],136±35%
same,Insulin-stimulated IRS-1 tyrosine-phosphorylation,IRS-1 [5]; [9],93±25%
same,Reduced electrophoretic mobility of IRS-1 due to calyculin A-induced phosphorylation,IRS-1 [5]; with aspirin,reversed
same,Insulin-stimulated AKT phosphorylation,AKT kinase,increased
same,Insulin-stimulated IR tyrosine-phosphorylation,IR β-subunit; [7],107±23%
same,IR and IRS-1 protein levels,IR β-subunit; 3T3-L1 adipocytes,unchanged
same,IR phosphorylation level compared to untreated controls,IR β-subunit; [8],126±24%
same,Protein levels of insulin signaling proteins downregulated by high glucose and insulin,"IR β-subunit; 3T3-L1 adipocytes, concurrent treatment with aspirin",restored
same,Insulin-stimulated IR tyrosine-phosphorylation,IR β-subunit; [9],109±15%
same,Tyrosine-phosphorylation of IRS-2,IRS-2; TNF-α plus drug,115±31%
same,Insulin levels during glucose tolerance test,"Zucker fa/fa rats; 120 mg/kg/day continuous subcutaneous infusion, 3-4 weeks, oral GTT",Concomitant reductions
same,Fasting blood glucose values and glucose tolerance,"Zucker fa/fa rats; 120 mg/kg/day continuous subcutaneous infusion, 3-4 weeks, oral GTT, compared to untreated controls",improved
same,"Food intake, blood chemistry, or body weight",Zucker fa/fa rats; 120 mg/kg/day,Neither aspirin nor salicylate affected
same,Free fatty acid (FFA) levels,"Zucker fa/fa rats; after the treatment period, aspirin 120 mg/kg/day",1.1 ± 0.2 mM
same,Fasting triglyceride levels,"Zucker fa/fa rats; after three weeks of aspirin treatment, 120 mg/kg/day",90 ± 58 mg/dL
same,Cholesterol levels,"Zucker fa/fa rats; fasting serum, aspirin 120 mg/kg/day",unaffected
same,Blood glucose in insulin tolerance test,"Zucker fa/fa rats; intraperitoneal insulin 2.0 U/kg after overnight fast, aspirin-treated animals",dramatic decreases
same,Time to drop in FFA levels after aspirin initiation,Zucker fa/fa rats; preceding reductions in triglyceride and glucose levels,≤ 1 week
same,Serum levels of liver enzyme alanine aminotransferase (ALT) (hepatotoxicity),Zucker fa/fa rats; throughout the studies,"normal, low"
same,Insulin receptor (IR) tyrosine autophosphorylation,Insulin receptor (IR),Significantly increased stimulation
same,"Potency towards the cyclooxygenases, aspirin relative to sodium salicylate",cyclooxygenases,~100 fold
COC[C@@H]([C@H](O)[C@H](O)C(=O)NCC[C@H](C)c1nc(/C=C/C[C@@H]2O[C@]3(C[C@@H](O)[C@@H]2C)O[C@H]([C@H](C[C@H](O)[C@H](C)[C@H](O)[C@H](C)/C=C(C)/C(C)=C/C=C/C(C)=C\C#N)OC)[C@H](OP(=O)(O)O)C3(C)C)co1)N(C)C [calyculin A],'Insulin resistance' in isolated tissues and cultured cells,[1],induce
same,Effect on IKKβ,IKKβ [2],activate
CC(C)Cc1ccc(C(C)C(=O)O)cc1 (centres unmarked) [ibuprofen],Reversal of TNF-α induced 'insulin resistance',IRS-2,"Neither ibuprofen nor naproxen, two NSAID inhibitors of COX1 and COX2, reversed"
COc1ccc2cc([C@H](C)C(=O)O)ccc2c1 [naproxen],Reversal of TNF-α induced 'insulin resistance',IRS-2,"Neither ibuprofen nor naproxen, two NSAID inhibitors of COX1 and COX2, reversed"
"O=C([O-])c1ccccc1O.[Na+] [salicylate, sodium salicylate]","Food intake, blood chemistry, or body weight",ob/ob mice,Neither aspirin nor salicylate affected
same,Electrophoretic mobility of IRS-1,IRS-1 [3],increased
same,"Inhibition of IKKβ, relative potency",IKKβ [4],equipotent inhibitors
same,Insulin-stimulated AKT phosphorylation,AKT kinase,increased
same,Tyrosine-phosphorylation of IRS-2,IRS-2; TNF-α plus drug,89±8%
same,"Food intake, blood chemistry, or body weight",Zucker fa/fa rats; 120 mg/kg/day,Neither aspirin nor salicylate affected
same,"Serum salicylate levels, mean",[6],0.81 ± 0.25 mM
same,"Serum salicylate levels, range",[6],0.3 to 1.3 mM
same,Insulin receptor (IR) tyrosine autophosphorylation,Insulin receptor (IR),Significantly increased stimulation
TNF-α,AKT activation,AKT,18±15%
same,"Insulin-stimulated IR activation, of untreated controls",IR,29±2%
same,Insulin-stimulated tyrosine phosphorylation of IRS-1,IRS-1 [5]; [10],37±9%
same,IR and IRS-1 protein levels,IR β-subunit; 3T3-L1 adipocytes,unchanged
same,Insulin-stimulated tyrosine phosphorylation of IR β-subunit,IR β-subunit; [10],42±11%
same,Tyrosine-phosphorylation of IRS-2,IRS-2; TNF-α treatment alone,39±9%
